The values below come from PMC6611794, “Development of a high-throughput strategy for discovery of potent analogues of antibiotic lysocin E” (Nature Communications, 2019).

≈ marks a conversion by molar mass, not a printed value. Like-named read-outs stand apart in the source and are kept apart here. Where a SMILES comes first, the peptide text is derived from it. Bridges are numbered along the chain shown (N, C = ends). [ ]: non-standard residue; d: D form. The star is where a group is joined. Hexanoyl(3R-OH,5-Me) = CC(C)C[C@@H](O)CC(=O)*; dNMeF = CN[C@H](Cc1ccccc1)C(=O)O

The MIC is the smallest concentration in the dilution series that meets the test's criterion for growth inhibition. A lower MIC goes with inhibition by little substance. For orientation: Kd means the free concentration of one partner at which half of the binding sites on the other are occupied at equilibrium, for simple one-to-one binding.

One test deals with MRSA. Details: method as in PMID 25485686. The following applies: cited from earlier work. The text has this: (§1) Lysocin E (1, Fig. 1a) was isolated from Lysobacter sp. as a new antibiotic and structurally determined to be a 37-membered depsipeptide (molecular weight = 1618 Da) with an N-methylated amide and ester linkages. The macrocyclic core of 12 residues contains four different non-proteinogenic D-amino acids (D-Arg-2/7, N-Me-D-Phe-5, D-Gln-9, D-Trp-10) and is appended with (R)-3-hydroxy-5-methylhexanamide.

For test [1], the system named is Staphylococcus aureus MSSA1. Here is the method:
(§2) Evaluation of antimicrobial spectra of peptides. The MIC assay was performed according to the Clinical and Laboratory Standards Institute protocols. The antimicrobial activities of the peptides were measured using the broth microdilution method.1 Serial dilutions of peptides were prepared in cation adjusted Müller Hinton Broth. Each dilution (100 µL) was dispensed to each well of the round-bottom plate to obtain final concentrations ranging from 64 µg/m L to 0.0075 µg/m L. Bacteria were grown at 37 °C overnight on Tryptic Soy Broth or Müller Hinton Broth agar plates. Bacterial inoculum was prepared by direct suspension of the colonies in 0.9% saline, and adjusted to obtain OD 625 0.08–0.13 using a spectrophotometer UV -1280 (Shimadzu). The resultant suspension was diluted with cation adjusted Müller Hinton Broth (1/20). The resultant mixture (10 µL) was inoculated to each well of the plates (approximately 5 ×10^4 CFU/well ), mixed, and incubated at 37 °C for 18 h. The MIC value was determined as the minimum concentration that inhibited growth of bacteria. To evaluate the antimicrobial activities of peptides in the presence of serum, 10% bovine calf serum in cation adjusted Müller Hinton Broth was used.

Test [2] in a line: On-bead menaquinone complexation assay (fluorescence of 2H). The format is binding. Conditions: single library bead (hit beads >1000 a.u.); average of three readings. Here is the method: Next, the feasibility of the on-bead complexation assay was assessed using bead-linked lysocin E 30 and MK-4 (2). Our initial assay based on the finding that 1 and 2 form a red precipitate upon complexation (Supplementary Fig. 2) was not robust, because the magnitude of the red color was not proportional to the amount of captured 2 (Fig. 2b, c). We therefore developed a fluorescence-based method for quantifying 2 by reducing its naphthoquinone moiety to fluorescent hydroquinone 2H. One bead of 30 was incubated with 2 in MeOH, washed by MeOH in a microplate well, and then the bead-bound 2 was eluted under more forcing hydrophobic conditions (n-BuOH at 50 °C). The eluate containing 2 was treated with NaBH4 in n-BuOH to produce 2H[46]. The fluorescence intensity of 2H was evaluated to determine the quantity of 2 bound to one bead of 30. The method was found with a small margin of error (1026 ± 64 a.u.), indicating its high accuracy (Fig. 2a and Supplementary Fig. 3). Importantly, the structure of 1 remained intact during the complexation assay as judged by UHPLC and mass analyses.
General procedures for menaquinone complexation assay. To the bead-linked lysocin E analogues in LibraTube was added a solution of menaquinone-4 (2) in MeOH (10 mM, 1.0 mL/1000 beads). The mixture was incubated at room temperature for 12 h. A suspension of the beads in MeOH (200 beads/200 µL) was transferred to a 2.0 mL microtube.
Each bead in the microtube was transferred to each well of a 96-well filtration plate (278011, Thermo Fisher Scientific, 1 bead/well) with the solution of 2 (20 µL/bead) using a micropipette. To each well was added MeOH (400 µL), and the beads was filtered by gravity flow (× 3). The beads in the plate were dried under vacuum for 0.5–1 h. The dried beads were transferred to a 96-well PCR plate (652270, Greiner bio-one, 1 bead/well) with MeOH (20 µL/well) using a micropipette. The solution was removed under a stream of Ar at 40 °C to give the 2-bound bead-linked peptides.
To the 2-bound bead-linked peptides in the plate was added n-BuOH (30 µL/well) at room temperature .
The suspension was incubated at 50 °C for 1 h. The resultant mixture in the plate was centrifuged at 3500 × g at room temperature for 10 sec . The supernatant in each well was transferred to the corresponding well of a black polystyrene flat -bottom 96-well plate (655086, Greiner bio-one). The solution was concentrated under a stream of Ar at 40 °C to give the eluted 2.
To the above eluted 2 in the plate was added n-BuOH (25 µL/well) at room temperature. The plate was vortexed at room temperature for 10 min. To the resultant solution was added a solution of NaBH4 in n-BuOH (1.0 mM, 25 µL/well). The plate was vortexed at room temperature for 10 min. The fluorescence of menahydroquinone (2H, Ex. 250 nm/Em. 430 nm) of each well was measured at room temperature every 3 min (0, 3, and 6 min) on Gemini EM microplate reader (Molecular Devices) . The three fluorescence intensities of each bead were averaged and plotted against the bead number.
Evaluation of menaquinone complexation activities of the selected bead-linked peptides. Bead-linked peptides 30, BLP1, and BLP2 were synthesized according to the above described procedures (loading rate:
0.222 mmol/g). The bead-linked peptides were subjected to the MK complexation assay described above.
The obtained fluorescent intensities of 2H (arbitrary unit) were 1026 ± 64 for 30, 396 ± 27 for BLP1, 72.9 ± 2.0 for BLP2, and 41.6 ± 0.1 for background adsorption (no bead), respectively (Supplementary Figure 3).

Test [3] deals with Staphylococcus aureus RN4220. How it is done: ×105 colony forming units (CFU) , 21 g/L Müller Hinton Broth (Difco), 5 0 mg/L Ca2+ (adjusted with CaCl2• 2H2O), and 25 mg/L Mg 2+ (adjusted with MgCl 2•6H2O)]. […]
as §2

Test [4] has as its system Staphylococcus aureus Smith ATCC 13709. The test is classed as cell-based. Here is the method:
(§3) Antimicrobial activity assay of bead-derived peptides. […]
(§4) plate was added DMSO (1 µL/well). […]
(§5) precipitation of the grown cells was examined.
(§6) Evaluation of antimicrobial spectra of peptides. The MIC assay was performed according to the Clinical and Laboratory Standards Institute protocols. The antimicrobial activities of the peptides were measured […]
(§7) Soy Broth or Müller Hinton Broth agar plates. Bacterial inoculum was prepared by direct suspension of the […]
(§8) and incubated at 37 °C for 18 h. […]
(§9) inhibited growth of bacteria.

Details of test [5]: method as in our previous studies. Conditions: ref our previous studies, cited from earlier work.
Description: as §1

In the next test the test system is S. aureus. The test is classed as cell-based, Staphylococcus aureus. Conditions: 18 h. Here is the method:
as §3, §4, §5, §6, §7, §8, §9

The next test deals with MRSA4. The test is classed as cell-based, Staphylococcus aureus. Conditions: 18 h. Here is the method: as §3, §4, §5, §6, §7, §8, §9

Turning to `CC[C@H](C)[C@@H]1NC(=O)[C@@H](Cc2c[nH]c3ccccc23)NC(=O)[C@@H](CCC(N)=O)NC(=O)[C@H](CCC(=O)O)NC(=O)[C@@H](CCCNC(=N)N)NC(=O)[C@H](CC(C)C)NC(=O)[C@@H](Cc2ccccc2)N(C)C(=O)CNC(=O)[C@H](CO)NC(=O)[C@@H](CCCNC(=N)N)NC(=O)[C@@H](NC(=O)C[C@H](O)CC(C)C)[C@@H](C)OC(=O)[C@H]([C@@H](C)O)NC1=O` [Peptide 1, Lysocin E] ({Hexanoyl(3R-OH,5-Me)}-T[dR]SG[dNMeF]L[dR]E[dQ][dW]IT; ester 1-C), the “minimum inhibitory concentration (MIC) against MRSA” value with MRSA was 4 µg/mL (≈ 2.47 µM). Besides, the MIC in test [1] (10% BCS (+)) was found to be 0.0625 µg/mL (≈ 0.0386 µM); in test [1] (BCS free), 2.0 µg/mL (≈ 1.24 µM); in test [3] (10% BCS (+)) it was 0.125 µg/mL (≈ 0.0773 µM); in test [3] (BCS free) it was 4.0 µg/mL (≈ 2.47 µM); in test [4] (10% BCS (+)), 0.0625 µg/mL (≈ 0.0386 µM); in test [4] (ATCC 13709, 18 h), 2.0 µg/mL (≈ 1.24 µM). The minimal inhibitory concentration (MIC) against MRSA4 came out at 0.25 µg/mL (≈ 0.155 µM). Moreover, in test [2], the “fluorescence intensity of 2H” value is listed as 1369.78 a.u. Further, the “decrease of MIC by adding 10% BCS” value in test [4] amounted to 64 fold. In addition, the dissociation constant Kd in test [5] (1:1 complex with MK-4, in vitro) was 4.5 µM. The “affinity toward ubiquinone-10” value in test [5] (in vitro) is on record as “no affinity”. Besides, in the test with S. aureus, the “original MIC value against S. aureus” value was 2 to 4 µg/mL.
